Results as given in ChEMBL document CHEMBL1151590, “Synthesis and anti-HIV activity of dibenzylbutyrolactone lignans” (Bioorg Med Chem Lett, 1996).
In brackets after ≈: the same amount, converted by molar mass.

Key:
H9 [1] = assay: Compound was tested for cytotoxic activity against acutely infected H9 cell growth.; type: functional, cell-based; conditions: Homo sapiens
H9 [2] = assay: Concentration which inhibited HIV-1 replication by 50% in acutely infected H9 cells; type: functional, cell-based; conditions: Homo sapiens

SMILES	EC50 (H9 [2]) [µg/mL]	IC50 (H9 [1]) [µg/mL]
COc1ccc(C[C@@H]2COC(=O)[C@H]2Cc2ccc(O)cc2)cc1OC	0.25 (≈ 0.73 µM)	0.8 (≈ 2.34 µM)
COc1ccc(C[C@@H]2COC(=O)C2)cc1OC	34 (≈ 144 µM)	100 (≈ 423 µM)
COc1ccc(C[C@@H]2COC(=O)[C@H]2Cc2ccc(O)c(O)c2)cc1OC	1.5 (≈ 4.19 µM)	6 (≈ 16.7 µM)

More lines, main results first:

EC50 (H9 [2]) [µg/mL]	SMILES	IC50 (H9 [1]) [µg/mL]
2.2 (≈ 6.74 µM)	COc1ccc(C[C@@H]2COC(=O)[C@H]2Cc2ccccc2)cc1OC	20 (≈ 61.3 µM)
0.16 (≈ 0.43 µM)	COc1cc(C[C@@H]2C(=O)OC[C@H]2Cc2ccc(OC)c(OC)c2)ccc1O	0.8 (≈ 2.15 µM)
1.8 (≈ 5.26 µM)	COc1ccc(C[C@@H]2COC(=O)[C@H]2Cc2cccc(O)c2)cc1OC	4 (≈ 11.7 µM)
